“And” between values parts separate entries of the source, which are not always exact repeats. Equal values may be shown once.
Tests used:
L1210 leukemia [1] = assay: L1210 leukemia in BDF1 mice, treatment (ip) on Day 1 only, % increase in life span; type: in vivo
Protocol: The compound in 1% NaHCO3 solution was tested against the L1210 leukemia in BDF1 mice [10^6 cells given to mice on Day 0, treatment (ip) on Day 1 only] in laboratory and the following % increases in life span (%ILS) were noted: […]

L1210 leukemia [2] = assay: Delayed (Day 3) treatment of L1210 leukemia, compound singly and in combination regimen; type: in vivo, BDF1 mice; conditions: for >60 day survivors: Day 3
Protocol: The compound in 1% NaHCO3 solution was tested against the L1210 leukemia in BDF1 mice [10^6 cells given to mice on Day 0, treatment (ip) on Day 1 only] in laboratory and the following % increases in life span (%ILS) were noted:
The compound singly and in combination regimen
When treatment was delayed until Day 3, 5 mg/kg gave 51% ILS, 42% ILS and 39% ILS in three experiments.

Approximate LD50 = type: in vivo; conditions: mice
L1210 leukemia [3] = assay: Second screener, L1210 leukemia, day 1, 5, 9 schedule; type: in vivo, mice; conditions: 6.25 mg/kg
Description: The compound was submitted to the Drug Development Branch of the National Cancer Institute and assigned NSC Number 271674. It was screened against the L1210 leukemia on a day 1, 5, 9 schedule and the following results were obtained:

L1210 cells = assay: In vitro growth inhibition of L1210 cells; type: cell-based, murine; conditions: growth inhibition by 50 percent
Description: (§1) The ID50 refers to the concentration of test compound required to
(§2) inhibit the growth of either the L1210 or L1210/DDP (NSC119875) resistant

[4] = tested on: L1210/DDP (NSC119875) resistant cells; assay: In vitro growth inhibition of L1210/DDP (NSC119875 resistant) cells; type: cell-based, murine; conditions: growth inhibition by 50 percent
Description: as §1, §2

P388 leukemia = assay: In vivo activity against P388 leukemia; set-up: species or system murine; conditions: Days 1,5,9,13, NSC-119875 6.7 mg/kg, NSC-271674 20.0 mg/kg; for Survival (Days), P388: control 13.3 days
Description: (§3) Data are expressed as survival in days and as a percentage increase in […]

P388/DDP leukemia = assay: In vivo activity against P388/DDP leukemia with acquired resistance to NSC-119875; set-up: species or system murine; conditions: for % ILS, P388/DDP / Survival (Days), P388/DDP: Days 1,5,9,13, NSC-119875 6.7 mg/kg, NSC-271674 20.0 mg/kg; for Survival (Days), P388/DDP: control 11.0 days
Description: P388/DDP refers to a tumor line with acquired resistance to NSC119875.
as §3

B16 melanoma = assay: Panel of mouse tumors: B16 melanoma, survival time assay; type: in vivo; conditions: ip tumor, D1-9 ip
Protocol: (§4) *Survival time (mean or median) assay
(§5) **Tumor weight inhibition assay.
(§6) Data are expressed as a percentage of the survival time in days or the
(§7) tumor weights in mg of the treated mice divided by the corresponding
(§8) values for the control mice. All testing was performed using both platinu
(§9) compounds in the same experiment. The criteria for activity are as
(§10) follows: confirmed activity (activity from two separate laboratories) of
(§11) % T/C of 150 or more for survival systems and 10% or less for tumor weigh
(§12) inhibition assays. Lower levels of activity such as a % T/C of 125 for
(§13) survival systems and 42% for tumor weight inhibition assays are considere
(§14) statistically significant.

L1210 = assay: Panel of mouse tumors: L1210, survival time assay; type: in vivo; conditions: ip tumor, D1-9 ip
Protocol: as §4, §6, §7, §8, §9, §10, §11, §12, §13, §14

Lewis lung = assay: Panel of mouse tumors: Lewis lung, survival time assay; type: in vivo; conditions: iv tumor, D1-9 ip
Protocol: as §4, §6, §7, §8, §9, §10, §11, §12, §13, §14

CD8Fl mammary = assay: Panel of mouse tumors: CD8Fl mammary, tumor weight inhibition assay; type: in vivo; conditions: sc tumor, Q7DX5 ip
Protocol: as §5, §6, §7, §8, §9, §10, §11, §12, §13, §14

Colon #38 = assay: Panel of mouse tumors: Colon #38, tumor weight inhibition assay; type: in vivo; conditions: sc tumor, D2,9 ip
Protocol: as §5, §6, §7, §8, §9, §10, §11, §12, §13, §14

[5] = Renal Toxicity Screening Protocol, toxicity compared to NSC-119875; type: in vivo; conditions: for Body Weight Loss / Clinical Chemistry - Blood Urea Nitrogen / Clinical Chemistry - Creatinine / Clinical Chemistry - Serum Glutamic Pyruvic Transaminase / Hematology - Hematocrit / Hematology - White Blood Cell / Histopathology - Gastrointestinal / Histopathology - Hematopoietic / Histopathology - Lymphatic / Histopathology - Renal: score relative to NSC119875; for TOTAL SCORE: sum of ten parameter scores
murine leukemia L1210 = assay: Antileukemic activity in mice against murine leukemia L1210 (general statement); type: in vivo
Description: Some previous platinum chelate compounds show dosage limitation due to renal impairment but the free carboxyl of the present composition offers a possible route of oral […] and absorption by the stomach.

L1210 leukemia [6] = assay: Combination chemotherapy of advanced L1210 leukemia, cure rate (greater than 60-day survival); type: in vivo, mice; conditions: at least 1000 mg/kg
Protocol: Compound Pt-307 was administered usually in a dosage regimen of 5-60 mg/kg of body weight. This was given as a single dose or on Days 1, 5, and 9 in the standard National Institutes of Health 10-day testing.
CY was utilized at an optimum 50 mg/kg of body weight (range 25-75 mg/kg ) preferably given at Day 3 in the 10-day testing. 5-FU was utilized at 75 mg/kg of body weight (range 50-100 mg/kg) at Day 3. HU was used in a high dosage of at least 1000 mg/kg of body weight (range 1000-1500 mg/kg). The 5-FU and the HU were utilized as ternary compositions only with cyclophosphamide and the platinum compound.
Hydroxyurea is utilized in combination therapy at a high dosage of at least 1000 mg/kg of body weight (range 1000-1500 mg/kg).

[7] = tested on: adenocarcinoma of the stomach, pancreas, and large bowel; conditions: combined FU and radiation vs radiation therapy alone, patients; cited from earlier work
[8] = first line, optimal dose (mg/kg/inj): NSC-119875 2, NSC-271674 6.25
[9] = second line, optimal dose (mg/kg/inj): NSC-119875 1, NSC-271674 1.56
[10] = first line, optimal dose (mg/kg/inj): NSC-119875 2, NSC-271674 0.78
[11] = second line, optimal dose (mg/kg/inj): NSC-119875 2, NSC-271674 1.56
[12] = first line, optimal dose (mg/kg/inj): NSC-119875 2, NSC-271674 3.12
[13] = second line, optimal dose (mg/kg/inj): NSC-119875 2, NSC-271674 6.25
[14] = first line, optimal dose (mg/kg/inj): NSC-119875 8, NSC-271674 6.25
[15] = second line, optimal dose (mg/kg/inj): NSC-119875 8, NSC-271674 25
[16] = first line, optimal dose (mg/kg/inj): NSC-119875 8, NSC-271674 12.5
[17] = second line, optimal dose (mg/kg/inj): NSC-119875 16, NSC-271674 50

Compound: N[C@@H]1CCCC[C@H]1N.O=C([O-])c1ccc(C(=O)[O-])c(C(=O)[O-])c1.[H+].[Pt+2] [NSC-271674, 4-Carboxyphthalato(1,2-diaminocyclohexane)platinum(II)]
- % increases in life span (% ILS) (L1210 leukemia [1]; 5 mg/kg ip): 70%
- % increases in life span (% ILS) (L1210 leukemia [1]; 10 mg/kg ip): 118%
- % increases in life span (% ILS) (L1210 leukemia [1]; 20 mg/kg ip): 119%
- % increases in life span (% ILS) (L1210 leukemia [1]; 25 mg/kg ip): 139%
- % increases in life span (% ILS) (L1210 leukemia [1]; 40 mg/kg ip): 232%
- % increases in life span (% ILS) (L1210 leukemia [1]; 50 mg/kg ip): 288%
- % increases in life span (% ILS) (L1210 leukemia [1]; 60 mg/kg ip): 174%
- % ILS (L1210 leukemia [2]; 5 mg/kg alone, Day 3 treatment, three experiments): 51% and 42% and 39%
- >60 day survivors (L1210 leukemia [2]; 5 mg/kg with cyclophosphamide (50 mg/kg) and 5-fluorouracil (75 mg/kg)): 8 of 10
- >60 day survivors (L1210 leukemia [2]; 5 mg/kg with cyclophosphamide (50 mg/kg), two experiments): 3 of 10 and no >60 day survivors
- approximate LD50 (Approximate LD50): ~75 mg/kg
- questionably toxic deaths (L1210 leukemia [3]): 2
- ID50 L1210 (L1210 cells): 0.30 µg/mL
- ID50 L1210/DDP [4]: 0.23 µg/mL
- % ILS, P388 (P388 leukemia): 56%
- Survival (Days), P388 (P388 leukemia): 20.7 days
- % ILS, P388/DDP (P388/DDP leukemia): 201%
- Survival (Days), P388/DDP (P388/DDP leukemia): 33.3 days
- activity against strains of murine leukemia wherein NSC 119875 has exhausted its activity (P388/DDP leukemia; murine leukemia strains): appears to be active
- % T/C (survival time) (B16 melanoma; [8]): 171%
- % T/C (survival time) (B16 melanoma; [9]): 159%
- % T/C (survival time) (L1210; [10]): 174%
- % T/C (survival time) (L1210; [11]): 325%
- % T/C (survival time) (Lewis lung; [12]): 122%
- % T/C (survival time) (Lewis lung; [13]): 127%
- % T/C (tumor weight) (CD8Fl mammary; [14]): 11%
- % T/C (tumor weight) (CD8Fl mammary; [15]): 25%
- % T/C (tumor weight) (Colon #38; [16]): 50%
- % T/C (tumor weight) (Colon #38; [17]): 33%
- testing for renal toxicity ([5]; against NSC 119875): superior results
- Body Weight Loss [5]: 3
- Clinical Chemistry - Blood Urea Nitrogen [5]: 1
- Clinical Chemistry - Creatinine [5]: 1
- Clinical Chemistry - Serum Glutamic Pyruvic Transaminase [5]: 3
- Hematology - Hematocrit [5]: 3
- Hematology - White Blood Cell [5]: 3
- Histopathology - Gastrointestinal [5]: 1
- Histopathology - Hematopoietic [5]: 5
- Histopathology - Lymphatic [5]: 1
- Histopathology - Renal [5]: 2
- TOTAL SCORE [5]: 23
- potentiation in a treatment with cyclophosphamide (murine leukemia L1210; CY 50 mg/kg): is potentiated
- antileukemic activity (murine leukemia L1210; mice, L1210): has shown antileukemic activity
- effective dosages (murine leukemia L1210; mice, L1210): 5-60 mg/kg of body weight

Compound: NC(=O)NO [Hydroxyurea, hydroxyurea]
- effectiveness when used alone (L1210 leukemia [6]): only minimally effective

Compound: N.N.O=C([O-])C1(C(=O)[O-])CCC1.[Pt+2] [NSC-241240, diamine[1,1cyclobutanedicarboxylato (2)-0,0']platinum]
- Body Weight Loss [5]: 1
- Clinical Chemistry - Blood Urea Nitrogen [5]: 1
- Clinical Chemistry - Creatinine [5]: 1
- Clinical Chemistry - Serum Glutamic Pyruvic Transaminase [5]: 3
- Hematology - Hematocrit [5]: 4
- Hematology - White Blood Cell [5]: 3
- Histopathology - Gastrointestinal [5]: 1
- Histopathology - Hematopoietic [5]: 5
- Histopathology - Lymphatic [5]: 1
- Histopathology - Renal [5]: 1
- TOTAL SCORE [5]: 21

Compound: N.N.[Cl][Pt][Cl] [NSC-119875, Cis-dichlorodiamino platinum II]
- ID50 L1210 (L1210 cells): 0.05 µg/mL
- ID50 L1210/DDP [4]: 2.50 µg/mL
- % ILS, P388 (P388 leukemia): 145%
- Survival (Days), P388 (P388 leukemia): 32.6 days
- % ILS, P388/DDP (P388/DDP leukemia): 41%
- Survival (Days), P388/DDP (P388/DDP leukemia): 15.5 days
- % T/C (survival time) (B16 melanoma; [8]): 193%
- % T/C (survival time) (B16 melanoma; [9]): 166%
- % T/C (survival time) (L1210; [10]): 151%
- % T/C (survival time) (L1210; [11]): 182%
- % T/C (survival time) (Lewis lung; [12]): 135%
- % T/C (survival time) (Lewis lung; [13]): 177%
- % T/C (tumor weight) (CD8Fl mammary; [14]): 0%
- % T/C (tumor weight) (CD8Fl mammary; [15]): 0%
- % T/C (tumor weight) (Colon #38; [16]): 42%
- % T/C (tumor weight) (Colon #38; [17]): 11%

Compound: NC1CCCCC1N.O=S(=O)([O-])[O-].[Pt+2] (centres unmarked) [NSC-250427, sulfato(1,2diaminocyclohexane)platinum (II)]
- Body Weight Loss [5]: 2
- Clinical Chemistry - Blood Urea Nitrogen [5]: 1
- Clinical Chemistry - Creatinine [5]: 1
- Clinical Chemistry - Serum Glutamic Pyruvic Transaminase [5]: 5
- Hematology - Hematocrit [5]: 3
- Hematology - White Blood Cell [5]: 3
- Histopathology - Gastrointestinal [5]: 1
- Histopathology - Hematopoietic [5]: 4
- Histopathology - Lymphatic [5]: 2
- Histopathology - Renal [5]: 2
- TOTAL SCORE [5]: 24

Compound: O=c1[nH]cc(F)c(=O)[nH]1 [5-fluorouracil]
- mean survival times [7]: significantly increased

Compound: CC(C)N.CC(C)N.[Cl-].[Cl-].[OH-].[OH-].[Pt] [NSC-256927, bisisopropylamine-cis-dichloro-trans-dihydroxy platinum (IV)]
- Body Weight Loss [5]: 2
- Clinical Chemistry - Blood Urea Nitrogen [5]: 1
- Clinical Chemistry - Creatinine [5]: 1
- Clinical Chemistry - Serum Glutamic Pyruvic Transaminase [5]: 3
- Hematology - Hematocrit [5]: 4
- Hematology - White Blood Cell [5]: 3
- Histopathology - Gastrointestinal [5]: 1
- Histopathology - Hematopoietic [5]: 4
- Histopathology - Lymphatic [5]: 4
- Histopathology - Renal [5]: 2
- TOTAL SCORE [5]: 25

— patent US4206226A (priority 1978, dated 1980)
